Test results published in BigSolDB 2.1.

| solubility (mole fraction) (in n-octanol, 290.15 K) | solubility (mole fraction) (in n-octanol, 298.15 K) | solubility (mole fraction) (in n-octanol, 303.15 K) | solubility (mole fraction) (in n-octanol, 310.15 K) | solubility (mole fraction) (in n-octanol, 315.15 K) | solubility (mole fraction) (in water, 293.15 K) | solubility (mole fraction) (in water, 298.15 K) | solubility (mole fraction) (in water, 303.15 K) | solubility (mole fraction) (in water, 310.15 K) | solubility (mole fraction) (in water, 315.15 K) | solubility (mole fraction) (in n-octanol, 293.15 K) | solubility (mole fraction) (in water, 295.15 K) | Compound |
| --- | --- | --- | --- | --- | --- | --- | --- | --- | --- | --- | --- | --- |
| – | 0.000198 | 0.000247 | 0.000345 | 0.000449 | 4.41e-07 | 5.17e-07 | 5.79e-07 | 8.02e-07 | 9.35e-07 | 0.000152 | – | Cc1cc(N)ccc1S(=O)(=O)Nc1ccccc1[N+](=O)[O-] |
| – | 0.00109 | 0.00118 | 0.00146 | 0.00179 | 2.22e-07 | 2.51e-07 | 2.74e-07 | 3.07e-07 | 3.33e-07 | 0.00097 | – | Nc1ccc(S(=O)(=O)Nc2cc(Cl)c(Cl)cc2Cl)cc1 |
| – | 7.4e-05 | 9.37e-05 | 0.000128 | 0.000164 | 1.05e-07 | 1.19e-07 | 1.35e-07 | 1.55e-07 | 1.75e-07 | 5.85e-05 | – | Nc1ccc(S(=O)(=O)Nc2ccccc2Cl)c(Cl)c1 |
| – | 0.000115 | 0.000143 | 0.000192 | 0.000242 | 1.39e-07 | 1.57e-07 | 1.74e-07 | 2.07e-07 | 2.32e-07 | 8.97e-05 | – | Cc1cc(N)ccc1S(=O)(=O)Nc1ccccc1Cl |
| 0.000317 | 0.000356 | 0.000422 | 0.000501 | 0.000617 | 1.67e-07 | 2.05e-07 | 2.48e-07 | 3.26e-07 | 3.89e-07 | – | – | Nc1ccc(S(=O)(=O)Nc2ccc(Cl)c(Cl)c2)cc1 |
| – | 0.000552 | 0.00064 | 0.000801 | 0.000897 | 1.26e-07 | 1.53e-07 | 1.79e-07 | 2.25e-07 | 2.56e-07 | 0.000491 | – | Cc1ccc(NS(=O)(=O)c2ccc(N)cc2)cc1Cl |

Continued, molecule first:

| Compound | solubility (mole fraction) (in n-octanol, 290.15 K) | solubility (mole fraction) (in n-octanol, 298.15 K) | solubility (mole fraction) (in n-octanol, 303.15 K) | solubility (mole fraction) (in n-octanol, 310.15 K) | solubility (mole fraction) (in n-octanol, 315.15 K) | solubility (mole fraction) (in water, 293.15 K) | solubility (mole fraction) (in water, 298.15 K) | solubility (mole fraction) (in water, 303.15 K) | solubility (mole fraction) (in water, 310.15 K) | solubility (mole fraction) (in water, 315.15 K) | solubility (mole fraction) (in n-octanol, 293.15 K) | solubility (mole fraction) (in water, 295.15 K) |
| --- | --- | --- | --- | --- | --- | --- | --- | --- | --- | --- | --- | --- |
| Nc1ccc(S(=O)(=O)Nc2ccc(Cl)cc2)cc1 | 0.00126 | 0.00132 | 0.00145 | 0.00153 | 0.00167 | 9.2e-07 | 1.19e-06 | 1.51e-06 | 2.02e-06 | 2.84e-06 | – | – |
| Nc1ccc(S(=O)(=O)Nc2ccc(Cl)cc2)c(Cl)c1 | – | 0.00248 | 0.00287 | 0.00349 | 0.00391 | 4.05e-07 | 4.72e-07 | 5.62e-07 | 6.86e-07 | 8.12e-07 | 0.0021 | – |
| Cc1ccc(NS(=O)(=O)c2ccc(N)cc2)c(Cl)c1 | – | 0.00158 | 0.0018 | 0.00221 | 0.00259 | – | 7.65e-07 | 9.36e-07 | 1.18e-06 | 1.45e-06 | 0.00133 | 7.06e-07 |
| Cc1cc(N)ccc1S(=O)(=O)Nc1ccc(Cl)cc1 | – | 0.00356 | 0.00393 | 0.00465 | 0.00519 | 4.79e-07 | 6.71e-07 | 9.04e-07 | 1.35e-06 | 1.68e-06 | 0.00319 | – |
| Nc1ccc(S(=O)(=O)Nc2cc(Cl)ccc2Cl)cc1 | 0.000347 | 0.000412 | 0.000529 | 0.000667 | 0.00089 | 6.12e-07 | 7.25e-07 | 8.98e-07 | 1.03e-06 | 1.24e-06 | – | – |
| Cc1ccc(Cl)cc1NS(=O)(=O)c1ccc(N)cc1 | – | 0.00188 | 0.00221 | 0.00273 | 0.00323 | – | 7.72e-07 | 1.03e-06 | 1.51e-06 | 2.12e-06 | 0.00153 | 6.16e-07 |
| Cc1cc(Cl)ccc1NS(=O)(=O)c1ccc(N)cc1 | – | 0.00489 | 0.00556 | 0.00675 | 0.00786 | 1.25e-06 | 1.61e-06 | 2.11e-06 | 3.08e-06 | 3.74e-06 | 0.00426 | – |
